Measured values as given in ChEMBL document CHEMBL1140755, “Interaction of aliphatic cap group in inhibition of histone deacetylases by cyclic tetrapeptides” (Bioorg Med Chem, 2008).
Non-standard residues stand in square brackets, D forms with d. Residues, ends and D or L forms follow the SMILES beside them. Ahp(7-SS(2-pyridyl)) = N[C@@H](CCCCCSSc1ccccn1)C(=O)O; Aib = CC(C)(N)C(=O)O

Columns and labels:
Histone deacetylase 4 = Histone deacetylase 4 (Homo sapiens, UniProt P56524); experiment: Inhibition of HDAC4 expressed in 293T cells; type: cell-based
Histone deacetylase 4, sequence (P56524 whole entry): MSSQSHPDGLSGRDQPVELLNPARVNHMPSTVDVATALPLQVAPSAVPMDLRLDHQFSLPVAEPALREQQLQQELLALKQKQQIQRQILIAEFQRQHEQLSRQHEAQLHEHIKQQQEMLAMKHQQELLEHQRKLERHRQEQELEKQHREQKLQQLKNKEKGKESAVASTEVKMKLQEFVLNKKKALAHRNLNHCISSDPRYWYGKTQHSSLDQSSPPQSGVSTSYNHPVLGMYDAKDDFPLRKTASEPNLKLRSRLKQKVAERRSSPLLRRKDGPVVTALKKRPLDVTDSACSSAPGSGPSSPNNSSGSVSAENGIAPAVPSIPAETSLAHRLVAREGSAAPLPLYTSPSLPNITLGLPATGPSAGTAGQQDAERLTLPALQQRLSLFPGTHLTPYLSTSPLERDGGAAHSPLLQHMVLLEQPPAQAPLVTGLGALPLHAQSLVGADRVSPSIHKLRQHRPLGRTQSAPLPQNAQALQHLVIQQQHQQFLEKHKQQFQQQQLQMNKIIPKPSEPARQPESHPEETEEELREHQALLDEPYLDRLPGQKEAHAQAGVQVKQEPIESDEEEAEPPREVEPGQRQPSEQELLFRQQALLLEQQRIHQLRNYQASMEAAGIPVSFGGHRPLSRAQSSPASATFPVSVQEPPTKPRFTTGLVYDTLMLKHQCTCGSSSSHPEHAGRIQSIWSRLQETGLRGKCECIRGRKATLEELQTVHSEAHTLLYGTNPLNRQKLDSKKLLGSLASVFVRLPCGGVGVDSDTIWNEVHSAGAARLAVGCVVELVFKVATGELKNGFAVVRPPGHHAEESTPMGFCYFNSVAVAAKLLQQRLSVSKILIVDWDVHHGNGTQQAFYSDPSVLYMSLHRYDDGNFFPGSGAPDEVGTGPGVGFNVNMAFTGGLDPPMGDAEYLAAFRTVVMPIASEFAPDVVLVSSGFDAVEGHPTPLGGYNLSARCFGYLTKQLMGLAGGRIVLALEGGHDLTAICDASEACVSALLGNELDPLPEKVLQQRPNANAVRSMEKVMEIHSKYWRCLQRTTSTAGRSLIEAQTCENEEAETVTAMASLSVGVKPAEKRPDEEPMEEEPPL

Histone deacetylase 1 = Histone deacetylase 1 (Homo sapiens, UniProt Q13547); experiment: Inhibition of HDAC1 expressed in 293T cells; type: cell-based
Histone deacetylase 1, sequence (Q13547 whole entry): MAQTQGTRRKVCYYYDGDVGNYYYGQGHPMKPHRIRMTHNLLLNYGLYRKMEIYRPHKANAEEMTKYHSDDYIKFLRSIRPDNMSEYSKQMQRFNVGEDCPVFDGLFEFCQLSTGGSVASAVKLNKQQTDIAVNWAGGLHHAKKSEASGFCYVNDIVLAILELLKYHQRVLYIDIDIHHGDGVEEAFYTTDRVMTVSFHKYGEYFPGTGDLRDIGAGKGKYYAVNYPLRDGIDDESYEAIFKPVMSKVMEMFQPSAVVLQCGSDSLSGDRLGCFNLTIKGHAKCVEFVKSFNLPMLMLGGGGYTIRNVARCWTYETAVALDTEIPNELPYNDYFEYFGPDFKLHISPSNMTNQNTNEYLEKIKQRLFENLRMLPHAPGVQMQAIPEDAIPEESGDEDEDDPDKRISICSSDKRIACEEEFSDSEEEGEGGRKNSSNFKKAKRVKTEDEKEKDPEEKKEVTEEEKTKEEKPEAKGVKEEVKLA

[1] = molecular target: T1, Protein deacetylase HDAC6 (Homo sapiens, UniProt Q9UBN7); experiment: Inhibition of HDAC6 expressed in 293T cells; type: cell-based
T1 sequence (Q9UBN7 whole entry): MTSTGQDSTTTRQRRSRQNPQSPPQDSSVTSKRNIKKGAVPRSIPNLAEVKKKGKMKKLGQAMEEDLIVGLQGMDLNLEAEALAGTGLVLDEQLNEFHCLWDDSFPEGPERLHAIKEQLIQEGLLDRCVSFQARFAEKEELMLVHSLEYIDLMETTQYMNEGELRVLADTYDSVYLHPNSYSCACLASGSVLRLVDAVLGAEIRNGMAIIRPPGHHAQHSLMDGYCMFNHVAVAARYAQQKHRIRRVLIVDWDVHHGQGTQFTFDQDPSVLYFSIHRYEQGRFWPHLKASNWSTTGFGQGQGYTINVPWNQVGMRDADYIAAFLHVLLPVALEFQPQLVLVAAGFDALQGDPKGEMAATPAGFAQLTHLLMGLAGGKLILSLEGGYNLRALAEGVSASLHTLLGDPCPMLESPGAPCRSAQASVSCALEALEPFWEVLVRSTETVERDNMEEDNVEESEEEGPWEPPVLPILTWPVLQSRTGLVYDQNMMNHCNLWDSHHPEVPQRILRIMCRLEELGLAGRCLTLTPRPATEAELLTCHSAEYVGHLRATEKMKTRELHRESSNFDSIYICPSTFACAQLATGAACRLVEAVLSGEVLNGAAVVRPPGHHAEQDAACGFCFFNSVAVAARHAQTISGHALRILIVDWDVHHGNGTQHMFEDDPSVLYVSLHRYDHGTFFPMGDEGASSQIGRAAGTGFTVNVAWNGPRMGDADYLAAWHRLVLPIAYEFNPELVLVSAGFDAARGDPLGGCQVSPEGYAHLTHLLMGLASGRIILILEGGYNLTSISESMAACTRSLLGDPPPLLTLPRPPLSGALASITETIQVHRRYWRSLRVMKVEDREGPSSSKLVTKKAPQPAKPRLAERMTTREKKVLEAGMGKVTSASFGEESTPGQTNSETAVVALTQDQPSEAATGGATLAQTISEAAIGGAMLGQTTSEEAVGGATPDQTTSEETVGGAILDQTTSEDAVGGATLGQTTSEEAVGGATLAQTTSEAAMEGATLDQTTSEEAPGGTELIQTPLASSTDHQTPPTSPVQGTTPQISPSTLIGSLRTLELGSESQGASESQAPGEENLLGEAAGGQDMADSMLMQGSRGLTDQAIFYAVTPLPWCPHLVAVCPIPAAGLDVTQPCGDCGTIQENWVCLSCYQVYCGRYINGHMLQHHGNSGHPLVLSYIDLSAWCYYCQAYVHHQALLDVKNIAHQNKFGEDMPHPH

[2] = Selectivity of IC50 for HDAC6 to IC50 for HDAC1

SMILES	IC50 (Histone deacetylase 4) [nM]	IC50 (Histone deacetylase 1) [nM]	IC50 [1] [nM]	Ratio IC50 [2]
CC(C)C[C@@H]1NC(=O)C(C)(C)NC(=O)[C@H](CCCCCSSc2ccccn2)NC(=O)[C@H]2CCCN2C1=O	33	58	230	–
CC1(C)NC(=O)[C@H](CCCCCSSc2ccccn2)NC(=O)[C@H]2CCCN2C(=O)[C@H](Cc2ccccc2)NC1=O (cyclo([Aib]F[dP][Ahp(7-SS(2-pyridyl))]))	18	39	404	10.3
CCCC[C@@H]1NC(=O)C(C)(C)NC(=O)[C@H](CCCCCSSc2ccccn2)NC(=O)[C@H]2CCCN2C1=O	24	38	280	–
C[C@@H]1NC(=O)C(C)(C)NC(=O)[C@H](CCCCCSSc2ccccn2)NC(=O)[C@H]2CCCN2C1=O (cyclo(A[dP][Ahp(7-SS(2-pyridyl))][Aib]))	52	94	430	–
O=C1N[C@@H]2CCCCCCCCCCCC[C@H](NC2=O)C(=O)N2CCC[C@@H]2C(=O)N[C@H]1CCCCCSSc1ccccn1	20	35	4900	140
CC[C@H](C)[C@@H]1NC(=O)C(C)(C)NC(=O)[C@H](CCCCCSSc2ccccn2)NC(=O)[C@H]2CCCN2C1=O	23	38	310	–
